# ChEMBL document CHEMBL1201862, “PubChem BioAssay data set” (2004)
# Activity calls are given as the source filed them.
# Assays:
# [1] = target: Nuclear receptor subfamily 5 group A member 2 (Homo sapiens, UniProt O00482); assay type: functional, cell-based;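 also: HEK293T cells transfected with LRH-1 and a StAR promoter luciferase reporter; potency for inhibitors that lower LRH-1 driven reporter light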
# [2] = nonselective StAR promoter luciferase inhibitors – cell-based, luminescence, luciferase reporter, counter-screen for LRH-1 inverse agonist project, dose response (AID 651969); assay type: functional
# Steroidogenic factor 1 = Steroidogenic factor 1 (Homo sapiens, UniProt Q13285); assay: Counterscreen for inverse agonists of the liver receptor homolog-1 (LRH-1; NR5A2): Luminescence-based cell-based high throughput dose response assay to identify inverse agonists of the Steroidogenic Factor 1 Nuclear Receptor (SF1; NR5A1).; assay type: functional
# Mu-type opioid receptor = Mu-type opioid receptor (Homo sapiens, UniProt P35372); assay type: functional, cell-based;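 also: U2OS cells with beta-arrestin recruitment to OPRM1 by beta-gal complementation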
# [3] = target: 5-hydroxytryptamine receptor 2A (Mus musculus, UniProt P35363); assay type: functional, cell-based;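 also: CHO-K1 cells with tagged receptor and beta-arrestin; agonist potency measured as compound-induced activation of the receptor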
# CHO-K1 = assay: Counterscreen for antagonists of the orexin 1 receptor (OX1R; HCRTR1): Homogeneous time resolved fluorescence (HTRF)-based cell-based dose response assay to identify antagonists of the parental CHO-K1 cell line. [Related pubchem assays (depositor defined):AID434989, AID435008, AID463079, AID485270, AID492963, AID492964, AID492965, AID493232, AID504699, AID504701]; assay type: functional; conditions: Cricetulus griseus;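 also: potency for inhibition of ATP-stimulated IP1 production as antagonists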
# Orexin receptor type 2 [4] = target: T1, Orexin receptor type 2 (Homo sapiens, UniProt O43614); assay: Counterscreen assay for antagonists of the orexin 1 receptor (OX1R; HCRTR1): Fluorescence-based cell-based dose response assay for antagonists of the orexin 2 receptor (OX2R; HCRTR2), run by assay provider.; assay type: functional
# T1 sequence (O43614 whole entry): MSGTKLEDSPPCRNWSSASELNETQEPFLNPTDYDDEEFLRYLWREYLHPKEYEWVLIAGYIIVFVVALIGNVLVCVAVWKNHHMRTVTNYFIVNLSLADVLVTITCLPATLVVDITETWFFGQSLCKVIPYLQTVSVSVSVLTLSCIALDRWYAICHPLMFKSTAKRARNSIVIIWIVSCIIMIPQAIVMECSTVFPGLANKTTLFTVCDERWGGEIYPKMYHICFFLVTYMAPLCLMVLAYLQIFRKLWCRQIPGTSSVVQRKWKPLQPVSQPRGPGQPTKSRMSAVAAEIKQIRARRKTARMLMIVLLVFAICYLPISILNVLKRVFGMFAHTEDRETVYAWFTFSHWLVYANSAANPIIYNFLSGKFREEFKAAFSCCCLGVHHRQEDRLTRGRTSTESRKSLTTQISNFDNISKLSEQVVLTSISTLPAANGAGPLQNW
# [5] = Counterscreen for antagonists of the orexin 1 receptor (OX1R; HCRTR1): Fluorescence-based cell-based high throughput dose response assay to identify antagonists of the parental CHO cell line. [Related pubchem assays (depositor defined):AID434989, AID435008, AID463079, AID485270, AID492963, AID492964, AID492965, AID493232, AID504699, AID504701]; assay type: functional
# Orexin receptor type 2 [6] = target: T1, Orexin receptor type 2; assay: Counterscreen assay for antagonists of the orexin 1 receptor (OX1R; HCRTR1): Homogeneous Time Resolved Fluorescence (HTRF)-based cell-based dose response assay for antagonists of the orexin 2 receptor (OX2R; HCRTR2), run by assay provider.; assay type: functional
# [7] = target: T2, Orexin/Hypocretin receptor type 1 (Homo sapiens, UniProt O43613); assay: Fluorescence-based cell-based high throughput dose response assay for antagonists of the orexin 1 receptor (OX1R; HCRTR1). [Related pubchem assays (depositor defined):AID434989, AID435008, AID463079, AID485270, AID492963, AID492964, AID492965, AID493232, AID504717, AID504718]; assay type: functional
# T2 sequence (O43613 whole entry): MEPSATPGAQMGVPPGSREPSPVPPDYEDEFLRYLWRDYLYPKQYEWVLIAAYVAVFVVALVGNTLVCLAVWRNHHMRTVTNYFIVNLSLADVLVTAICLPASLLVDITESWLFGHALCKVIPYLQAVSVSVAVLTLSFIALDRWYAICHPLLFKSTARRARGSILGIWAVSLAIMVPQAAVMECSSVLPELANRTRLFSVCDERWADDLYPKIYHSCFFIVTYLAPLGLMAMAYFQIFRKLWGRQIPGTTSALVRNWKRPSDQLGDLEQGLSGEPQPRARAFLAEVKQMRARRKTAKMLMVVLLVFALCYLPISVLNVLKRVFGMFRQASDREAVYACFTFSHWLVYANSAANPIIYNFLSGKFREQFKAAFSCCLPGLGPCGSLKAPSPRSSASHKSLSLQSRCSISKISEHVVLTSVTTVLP
# [8] = target: T2, Orexin/Hypocretin receptor type 1; assay: Homogeneous Time Resolved Fluorescence (HTRF)-based cell-based high throughput dose response assay for antagonists of the orexin 1 receptor (OX1R; HCRTR1). [Related pubchem assays (depositor defined):AID434989, AID435008, AID463079, AID485270, AID492963, AID492964, AID492965, AID493232, AID504717, AID504718]; assay type: functional
# [9] = target: Luciferin 4-monooxygenase (Photinus pyralis, UniProt P08659); assay: inhibition of purified Photinus pyralis luciferase – biochemical, luminescence, dose response (AID 1891)
# [10] = target: FAD-linked sulfhydryl oxidase ALR (Homo sapiens, UniProt P55789); assay: ALR-catalysed DTT oxidation blockers – biochemical, H2O2 detection, luminescence, cherry-pick, dose response (AID 493248)
# [11] = target: T3, Heat shock factor protein 1 (Mus musculus, UniProt P38532); assay: decrease of HSF1-responsive luciferase luminescence – cell-based, NIH3T3, dose retest, confirmation (AID 2382); assay type: functional;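 also: NIH3T3 fibroblasts with HSF1-driven luciferase reporter stressed by proteasome inhibitor MG132; luminescence from HSF1-driven luciferase expression after 8 hours of MG132 stress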
# T3 sequence (P38532 whole entry): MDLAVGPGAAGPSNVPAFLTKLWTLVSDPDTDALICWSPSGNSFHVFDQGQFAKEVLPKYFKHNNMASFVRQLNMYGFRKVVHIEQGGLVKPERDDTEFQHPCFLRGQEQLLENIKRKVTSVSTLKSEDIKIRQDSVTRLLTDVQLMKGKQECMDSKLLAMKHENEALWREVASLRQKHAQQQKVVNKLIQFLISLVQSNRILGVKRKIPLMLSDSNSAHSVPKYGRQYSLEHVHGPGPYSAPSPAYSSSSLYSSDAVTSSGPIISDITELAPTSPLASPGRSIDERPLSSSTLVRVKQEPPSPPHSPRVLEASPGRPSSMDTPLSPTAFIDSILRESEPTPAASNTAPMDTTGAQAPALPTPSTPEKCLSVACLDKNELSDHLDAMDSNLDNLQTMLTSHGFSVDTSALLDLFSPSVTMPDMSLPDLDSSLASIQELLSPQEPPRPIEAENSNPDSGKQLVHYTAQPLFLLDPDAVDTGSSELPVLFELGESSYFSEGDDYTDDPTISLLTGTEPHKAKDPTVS
# [12] = inhibition of ARNT PAS-B/TACC3 complex formation – biochemical, AlphaScreen, cherry-picked samples, confirmation (AID 651703); assay type: functional, Homo sapiens;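 also: His-tagged ARNT PAS-B domain paired with GST-TACC3 E629A dimer coactivator fragment; potency of inhibitors that break up the complex and lower AlphaScreen signal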
# [13] = Luminescence Cell-Based Dose Confirmation HTS to Identify Inhibitors of Platelet Dense Granule Release. [Related pubchem assays: 1663 (Primary HTS), 1678 (Summary of Project)]; assay type: functional
# [14] = target: Photoreceptor-specific nuclear receptor (Homo sapiens, UniProt Q9Y5X4); assay type: functional, cell-based;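 also: CHO-S cells with Gal4-NCOR and VP16-NR2E3 two-hybrid luciferase reporter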
# [15] = target: Adenosylmethionine-8-amino-7-oxononanoate aminotransferase (Mycobacterium tuberculosis, UniProt P9WQ81); assay: Mycobacterium tuberculosis BioA enzyme inhibitor Measured in Biochemical System Using Plate Reader - 2163-02_Inhibitor_Dose_CherryPick_Activity.; assay type: functional, Mycobacterium tuberculosis UT205
# Melanocortin receptor 4 = Melanocortin receptor 4 (Homo sapiens, UniProt P32245); assay: inhibitors of MC4R cAMP signaling – cell-based, TR-FRET, biased antagonists, dose response (AID 602298); assay type: functional;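 also: antagonist potency against agonist-stimulated cAMP production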
# [16] = cAMP pathway inhibition in counterscreen cell line – TR-FRET cAMP detection, counter-screen for MC4R biased antagonist project, dose response (AID 602305); assay type: functional, cell-based;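 also: U2OS cells stimulated with forskolin near its EC80 as the cAMP inducer; potency is for inhibition of forskolin-stimulated cAMP signaling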
# [17] = non-specific 3'UTR reporter inhibition in Clone20-Shn3RL – cell-based, Renilla luciferase, cherry-picked, counter-screen for Shn3 inhibitor project, dose response (AID 624133); assay type: functional
# Protein Wnt-3a = Protein Wnt-3a (Mus musculus, UniProt P27467); assay: antagonism of Wnt3a pathway luciferase reporter – Wnt-LIGHT cells, luminescence, selectivity assay for Gli-SUFU antagonist project, dose response (AID 651570); assay type: functional; conditions: read-out: IC50_Mean;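 also: Wnt-LIGHT reporter cells stimulated with conditioned medium from Wnt3a-producing cells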
# [18] = reduction of Shn3 3'UTR-driven luciferase in osteoblasts – cell-based, Clone20 osteoblasts, firefly luciferase, cherry-picked, dose response (AID 624132); assay type: functional;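 also: firefly luciferase luminescence from reporter carrying the Shn3 3'UTR in osteoblasts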
# [19] = loss of viability in HepG2 cells – cell-based, CellTiter-Glo, cherry-picked, cytotoxicity control for Shn3 inhibitor project, dose response (AID 624134); assay type: functional
# HeLa = assay: ATP-based viability loss in HeLa cells – cell-based, CellTiter-Glo luminescence, cherry-pick samples, cytotoxicity control for MITF activator project, dose response (AID 540259); assay type: functional; conditions: Homo sapiens
# INS1 = assay: INS-1E survival protection against cytokine death – cell-based, luminescence, retest, dose response (AID 449756); assay type: functional; conditions: Rattus norvegicus;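 also: cell death triggered by IL-1 beta plus TNF-alpha plus IFN-gamma mixture; protective hits raise ATP signal compared with cytokine alone wells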
# [20] = Luminescence Cell-Based Dose Retest to Confirm Inhibitors of Cancer Stem Cells. [Related pubchem assays (depositor defined):AID2717, AID2721]; assay type: functional; conditions: Homo sapiens
# [21] = target: Ras and Rab interactor 1/Tyrosine-protein kinase ABL1 (Homo sapiens, UniProt P00519+Q13671); assay type: functional;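 also: biochemical TR-FRET dose-response test measuring inhibition of binding between Rin1 and Abl proteins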
# Chain of Steroidogenic factor 1 (Q13285 whole entry): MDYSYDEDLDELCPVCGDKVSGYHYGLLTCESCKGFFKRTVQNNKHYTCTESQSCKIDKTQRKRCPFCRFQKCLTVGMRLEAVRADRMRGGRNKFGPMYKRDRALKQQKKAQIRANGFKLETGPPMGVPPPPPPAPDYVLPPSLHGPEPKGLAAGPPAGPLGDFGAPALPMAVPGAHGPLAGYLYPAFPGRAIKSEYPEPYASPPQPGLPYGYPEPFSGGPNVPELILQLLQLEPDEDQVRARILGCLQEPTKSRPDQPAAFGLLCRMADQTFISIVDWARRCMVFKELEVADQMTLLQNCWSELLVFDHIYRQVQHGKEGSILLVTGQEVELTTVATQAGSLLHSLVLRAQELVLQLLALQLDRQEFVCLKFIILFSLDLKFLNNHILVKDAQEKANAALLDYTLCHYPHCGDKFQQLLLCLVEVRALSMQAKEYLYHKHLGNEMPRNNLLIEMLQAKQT
# Chain of Adenosylmethionine-8-amino-7-oxononanoate aminotransferase (P9WQ81 whole entry): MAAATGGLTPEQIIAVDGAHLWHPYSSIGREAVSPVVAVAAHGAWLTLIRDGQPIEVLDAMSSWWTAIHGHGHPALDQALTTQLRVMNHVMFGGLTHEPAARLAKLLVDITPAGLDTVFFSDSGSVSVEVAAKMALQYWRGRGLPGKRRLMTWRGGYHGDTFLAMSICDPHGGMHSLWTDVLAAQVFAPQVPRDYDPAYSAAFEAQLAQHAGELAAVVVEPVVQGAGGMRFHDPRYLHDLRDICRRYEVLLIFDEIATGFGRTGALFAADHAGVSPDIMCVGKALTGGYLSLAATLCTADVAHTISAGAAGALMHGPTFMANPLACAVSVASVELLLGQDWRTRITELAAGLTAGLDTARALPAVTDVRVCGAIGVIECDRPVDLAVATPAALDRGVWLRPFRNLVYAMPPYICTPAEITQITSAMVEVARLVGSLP
# Chain of Protein Wnt-3a (P27467 whole entry): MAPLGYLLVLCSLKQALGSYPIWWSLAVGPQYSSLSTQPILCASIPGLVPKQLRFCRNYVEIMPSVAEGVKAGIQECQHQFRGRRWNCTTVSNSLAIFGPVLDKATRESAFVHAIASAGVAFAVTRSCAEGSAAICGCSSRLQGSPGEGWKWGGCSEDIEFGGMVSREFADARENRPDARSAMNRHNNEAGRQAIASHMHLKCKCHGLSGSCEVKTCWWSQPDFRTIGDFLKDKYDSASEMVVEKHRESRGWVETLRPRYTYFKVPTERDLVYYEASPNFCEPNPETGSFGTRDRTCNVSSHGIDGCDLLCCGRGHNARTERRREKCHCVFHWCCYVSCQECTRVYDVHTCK
# Chain of Nuclear receptor subfamily 5 group A member 2 (O00482 whole entry): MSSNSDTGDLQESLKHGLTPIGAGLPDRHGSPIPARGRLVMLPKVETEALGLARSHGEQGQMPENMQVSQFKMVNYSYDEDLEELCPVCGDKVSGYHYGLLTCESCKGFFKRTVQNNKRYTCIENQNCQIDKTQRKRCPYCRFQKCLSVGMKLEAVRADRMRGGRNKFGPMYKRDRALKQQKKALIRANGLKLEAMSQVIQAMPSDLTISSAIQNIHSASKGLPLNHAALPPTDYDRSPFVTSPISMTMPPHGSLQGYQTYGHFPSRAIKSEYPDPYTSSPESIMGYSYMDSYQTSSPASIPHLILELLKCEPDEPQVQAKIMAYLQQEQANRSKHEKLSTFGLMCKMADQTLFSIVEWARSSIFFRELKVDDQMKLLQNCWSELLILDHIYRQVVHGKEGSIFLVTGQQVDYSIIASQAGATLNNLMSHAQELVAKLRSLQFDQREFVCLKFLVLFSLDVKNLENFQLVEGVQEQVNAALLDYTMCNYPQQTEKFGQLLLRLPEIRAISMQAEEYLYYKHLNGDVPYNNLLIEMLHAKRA
# Chain of Melanocortin receptor 4 (P32245 whole entry): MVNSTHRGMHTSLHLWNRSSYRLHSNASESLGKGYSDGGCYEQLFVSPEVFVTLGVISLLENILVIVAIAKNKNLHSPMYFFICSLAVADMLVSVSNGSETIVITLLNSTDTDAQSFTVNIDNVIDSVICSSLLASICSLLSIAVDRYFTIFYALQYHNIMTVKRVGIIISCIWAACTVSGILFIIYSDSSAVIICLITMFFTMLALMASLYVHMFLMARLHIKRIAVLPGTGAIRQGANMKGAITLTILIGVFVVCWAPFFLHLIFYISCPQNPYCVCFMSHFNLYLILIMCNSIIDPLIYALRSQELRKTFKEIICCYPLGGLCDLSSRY
# Chain of 5-hydroxytryptamine receptor 2A (P35363 whole entry): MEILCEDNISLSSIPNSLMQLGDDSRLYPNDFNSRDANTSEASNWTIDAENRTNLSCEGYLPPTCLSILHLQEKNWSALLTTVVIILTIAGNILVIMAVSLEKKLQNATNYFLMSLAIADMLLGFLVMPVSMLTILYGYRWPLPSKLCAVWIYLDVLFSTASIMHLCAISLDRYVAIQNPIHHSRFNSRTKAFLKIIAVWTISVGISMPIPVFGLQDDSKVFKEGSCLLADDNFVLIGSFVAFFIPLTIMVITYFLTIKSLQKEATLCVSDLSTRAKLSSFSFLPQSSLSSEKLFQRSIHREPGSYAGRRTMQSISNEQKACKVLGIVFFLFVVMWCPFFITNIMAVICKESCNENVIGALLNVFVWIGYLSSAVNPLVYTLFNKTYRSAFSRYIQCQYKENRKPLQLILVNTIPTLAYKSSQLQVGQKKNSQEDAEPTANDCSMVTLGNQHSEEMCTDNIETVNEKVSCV
# Chain of Mu-type opioid receptor (P35372 whole entry): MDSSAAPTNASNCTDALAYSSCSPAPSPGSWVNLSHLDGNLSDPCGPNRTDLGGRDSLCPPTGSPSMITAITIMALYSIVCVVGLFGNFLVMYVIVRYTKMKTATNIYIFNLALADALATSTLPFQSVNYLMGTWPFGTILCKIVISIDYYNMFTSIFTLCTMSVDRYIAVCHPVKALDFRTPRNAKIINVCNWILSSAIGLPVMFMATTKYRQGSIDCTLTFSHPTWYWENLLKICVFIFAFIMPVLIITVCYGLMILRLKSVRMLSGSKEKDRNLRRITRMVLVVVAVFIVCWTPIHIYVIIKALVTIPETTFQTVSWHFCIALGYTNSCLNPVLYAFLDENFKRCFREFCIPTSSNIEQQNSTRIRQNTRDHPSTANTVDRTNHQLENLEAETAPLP
# Chain of Photoreceptor-specific nuclear receptor (Q9Y5X4 whole entry, the tested form may be a part): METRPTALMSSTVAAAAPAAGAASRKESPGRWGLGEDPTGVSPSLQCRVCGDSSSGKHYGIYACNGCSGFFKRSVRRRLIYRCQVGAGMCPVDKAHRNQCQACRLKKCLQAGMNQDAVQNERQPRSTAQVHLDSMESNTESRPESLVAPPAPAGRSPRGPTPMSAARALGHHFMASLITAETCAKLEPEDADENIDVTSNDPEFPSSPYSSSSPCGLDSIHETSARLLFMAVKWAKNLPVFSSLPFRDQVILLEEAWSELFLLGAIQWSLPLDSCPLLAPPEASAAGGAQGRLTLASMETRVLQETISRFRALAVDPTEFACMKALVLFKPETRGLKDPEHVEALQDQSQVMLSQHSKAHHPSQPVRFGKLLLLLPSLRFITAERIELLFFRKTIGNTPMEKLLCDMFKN
# Chain of Luciferin 4-monooxygenase (P08659 whole entry): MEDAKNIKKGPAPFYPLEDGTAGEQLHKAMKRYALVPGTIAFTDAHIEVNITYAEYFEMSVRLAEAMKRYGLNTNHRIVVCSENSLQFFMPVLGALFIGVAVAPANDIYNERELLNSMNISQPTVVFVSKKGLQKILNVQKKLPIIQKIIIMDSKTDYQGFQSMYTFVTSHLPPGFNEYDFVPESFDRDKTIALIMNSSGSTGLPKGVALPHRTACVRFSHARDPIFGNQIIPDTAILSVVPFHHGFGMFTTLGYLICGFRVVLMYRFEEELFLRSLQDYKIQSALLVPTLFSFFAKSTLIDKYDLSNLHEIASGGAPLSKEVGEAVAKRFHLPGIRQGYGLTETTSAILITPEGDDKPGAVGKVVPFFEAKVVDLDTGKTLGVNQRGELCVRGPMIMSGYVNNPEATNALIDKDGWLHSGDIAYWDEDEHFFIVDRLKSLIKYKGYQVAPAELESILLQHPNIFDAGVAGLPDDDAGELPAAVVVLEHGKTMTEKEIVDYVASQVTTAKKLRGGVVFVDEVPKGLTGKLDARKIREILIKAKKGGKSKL
# Chain of FAD-linked sulfhydryl oxidase ALR (P55789 whole entry): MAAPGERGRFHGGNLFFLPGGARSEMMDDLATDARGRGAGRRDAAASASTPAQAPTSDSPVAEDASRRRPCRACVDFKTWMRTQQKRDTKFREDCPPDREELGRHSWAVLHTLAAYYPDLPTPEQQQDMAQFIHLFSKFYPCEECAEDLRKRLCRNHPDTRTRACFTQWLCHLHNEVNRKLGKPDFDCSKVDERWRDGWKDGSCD
smiles,measurement,setting,value
O=C(Nc1ccc(C(=O)N2CCOCC2)cc1)c1cccc([N+](=O)[O-])c1,IC50,[1],15 µM (inactive)
same,IC50,[2],35.9 µM (inactive)
same,IC50,Steroidogenic factor 1,1.09 µM (active)
COc1ccnc(Oc2ccccc2)c1C(=O)N=CNOCc1ccccc1F,IC50,[1],3.99 µM (active)
same,IC50,[2],26.1 µM (inactive)
same,IC50,Steroidogenic factor 1,3.65 µM (active)
Brc1ccc(CN2CCN(c3ccccn3)CC2)s1,EC50,Mu-type opioid receptor,92.5 µM (inactive)
same,EC50,[3],0.0705 µM (active)
Cc1nc2cc(-c3nc4ccccc4o3)ccc2[nH]1,IC50,CHO-K1,> 66.2 µM (inactive)
same,IC50,Orexin receptor type 2 [4],> 88.8 µM (inactive)
same,IC50,[5],> 49.8 µM (inactive)
same,IC50,Orexin receptor type 2 [6],> 50 µM (inactive)
same,IC50,[7],6.1 µM (active)
same,IC50,[8],1.06 µM (active)
NNC(=O)c1ccc(O)cc1O,EC50,[9],> 112 µM (not active)
same,AC50,[10],16 µM (active)
same,EC50,[11],> 195 µM (not active)
same,AC50,[12],91.8 µM (active)
same,EC50,[13],> 112 µM (not active)
Cc1c(NS(=O)(=O)c2cccc(C(=O)OCC(=O)N(C)C3CCCCC3)c2)c(=O)n(-c2ccccc2)n1C,IC50,CHO-K1,> 66.2 µM (inactive)
same,IC50,Orexin receptor type 2 [4],1.2 µM (active)
same,IC50,[5],> 49.7 µM (inactive)
same,IC50,Orexin receptor type 2 [6],0.8 µM (active)
same,IC50,[7],2.42 µM (active)
same,IC50,[8],0.142 µM (active)
c1ccc(CNc2ncnc3sccc23)cc1,IC50,[14],3.7 µM (active)
COc1ccc(C(C)NC(=O)Nc2ccc(C(C)=O)cc2)cc1OC (centres undefined),AC50,[15],3.72 µM (active)
COc1cc(-c2nc3ccc4ccccc4c3c3c2CCC3)cc(OC)c1OC,IC50,Melanocortin receptor 4,43.1 µM (inactive)
same,IC50,[16],> 64.6 µM (inactive)
Cc1cc(Br)c(S(=O)(=O)NCc2ccncc2)cc1C,AC50,[17],3.34 µM (active)
same,IC50,Protein Wnt-3a,3.16 µM (active)
same,AC50,[18],1.41 µM (active)
same,AC50,[19],2.37 µM (active)
Cc1cccc(C)c1OCC(O)CN1CCN(c2ccccc2)CC1 (centres undefined),EC50,Mu-type opioid receptor,92.5 µM (inactive)
same,EC50,[3],76.1 µM (inactive)
COc1cccc(-c2cc(C(=O)Nc3ccccc3SC)no2)c1,IC50,CHO-K1,> 66.2 µM (inactive)
same,IC50,Orexin receptor type 2 [4],> 88.8 µM (inactive)
same,IC50,[5],> 49.7 µM (inactive)
same,IC50,Orexin receptor type 2 [6],> 50 µM (inactive)
same,IC50,[7],3.59 µM (active)
same,IC50,[8],1.91 µM (active)
same,AC50,HeLa,97.5 µM (active)
CCCC(C)C(=O)Nc1nc(C)c(-c2csc(Nc3ccc(Cl)cc3)n2)s1 (centres undefined),IC50,Protein Wnt-3a,13.8 µM (active)
same,AC50,INS1,4.18 µM (active)
O=C(Nc1ccccc1N1CCCCC1)c1ccc(Cl)c([N+](=O)[O-])c1,IC50,Melanocortin receptor 4,> 64.6 µM (inactive)
same,IC50,[16],> 64.6 µM (inactive)
same,AC50,[20],3.19 µM (active)
O=C(OCCOc1ccc(Cl)cc1)c1cc(S(=O)(=O)N2CCCCC2)ccc1N1CCOCC1,IC50,[14],4.3 µM (active)
same,AC50,[17],6.64 µM (active)
same,AC50,[18],1.97 µM (active)
same,AC50,[19],> 70 µM (inactive)
CN(Cc1ccccc1)S(=O)(=O)c1ccc(Cl)c(C(=O)N2CCC2)c1,IC50,[21],32.9 µM (inactive)
COc1ccc(CCNC(=O)c2ccc(NC3=NC4CS(=O)(=O)CC4S3)cc2)cc1OC (centres undefined),IC50,[21],26.3 µM (inactive)
O=C(Cc1ccccc1)N1CC[C@@H]2[C@H](CO)Nc3ccc(Br)cc3[C@@H]21,AC50,[15],3.09 µM (active)
